Measurements reported in ChEMBL document CHEMBL1142346, “Quantitative structural-activity relationship (QSAR) study for fungicidal activities of thiazoline derivatives against rice blast” (2008).

test system: Pyricularia grisea; experiment: Antifungal activity against Magnaporthe grisea infected rice plant assessed as logarithm of fungal control value at 100 ppm after 5 days; assay type: functional

Compound	Activity
CCc1ccc(NC(=O)Cc2cs/c(=N\c3ccc(OC)cc3)n2C)cc1	1.99

test system: Pyricularia grisea; experiment: Antifungal activity against Magnaporthe grisea infected rice plant after 5 days relative to control; assay type: functional; set-up: concentration or dose not given beside the values

Compound	Activity
CN(C(=O)Cc1cs/c(=N\c2ccc(Br)cc2)n1C)c1ccccc1	0%
CN(C(=O)Cc1cs/c(=N\c2cc(Cl)cc(Cl)c2)n1C)c1ccccc1	8%
CN(C(=O)Cc1cs/c(=N\c2ccc(F)cc2F)n1C)c1ccccc1	0%
COc1ccc(/N=c2\scc(CC(=O)Nc3ccc(Cl)cc3)n2C)cc1	83%
CCc1ccc(NC(=O)Cc2cs/c(=N\c3ccc(C#N)cc3)n2CCO)cc1	86%
CCc1ccc(NC(=O)Cc2cs/c(=N\c3ccc(C#N)cc3)n2C)cc1	93%
COc1ccc(NC(=O)Cc2cs/c(=N\c3ccc([N+](=O)[O-])cc3)n2CCO)cc1	20%
COc1ccc(NC(=O)Cc2cs/c(=N\c3ccc([N+](=O)[O-])cc3)n2C)cc1	99%
Cn1c(CC(=O)Nc2ccc(Br)cc2)cs/c1=N\c1ccc(Oc2ccccc2)cc1	98%
O=C(Cc1cs/c(=N\c2ccc(Oc3ccccc3)cc2)n1C1CC1)Nc1ccc(Br)cc1	16%
CN(C(=O)Cc1cs/c(=N\c2ccc(F)cc2)n1C)c1ccccc1	0%
CCc1ccc(NC(=O)Cc2cs/c(=N\c3ccc(OC)cc3)n2CCO)cc1	75%
CN(C(=O)Cc1cs/c(=N\c2ccc(Oc3ccccc3)cc2)n1C)c1ccccc1	0%
CN(C(=O)Cc1cs/c(=N\c2ccc(C#N)cc2)n1C)c1ccccc1	25%
CCc1ccc(NC(=O)Cc2cs/c(=N\c3ccc(OC)cc3)n2C)cc1	98%
CN(C(=O)Cc1cs/c(=N\c2ccc(C(F)(F)F)cc2)n1C)c1ccccc1	0%
COc1ccc(/N=c2\scc(CC(=O)Nc3ccc(Cl)cc3)n2CCO)cc1	10%
CN(C(=O)Cc1cs/c(=N\c2cccc(F)c2)n1C)c1ccccc1	0%
